Measured values: PMC10649961, “Novel Mitochondria-Targeted Amphiphilic Aminophosphonium Salts and Lipids Nanoparticles: Synthesis, Antitumor Activity and Toxicity” (Nanomaterials, 2023)

Key:
caspase 8 = test: Caspase 8 ELISA in cell lysates; format: cell-based, human; settings: HuTu 80 lysates, relative to the control
Procedure: In vitro quantitative measurement of caspase-9 and caspase-8 was performed using ELISA kits (ELISA Kit for Caspase 9 and ELISA Kit for Caspase 8, Human Cloud-Clone Corp., Wuhan, China). The analysis was carried out according to the manufacturer’s instructions. Samples were standardized for total protein content (1 mg/mL). Protein concentration was determined with Coomassie-based assays using Bredford Dye Reagent (Bio-Rad, Hercules, CA, USA). The absorbance was measured using a microplate reader, EPOCH (BioTek Instruments, Inc., Winooski, VT, USA), at a wavelength of 450 ± 10 nm. Lysates of untreated HuTu 80 cells were used as controls.
To confirm that apoptosis induced by compounds 4b, 5b, 6a, and 8 proceeds along the internal (mitochondrial) pathway, studies were conducted to determine the enzymatic activity of the early apoptosis key markers—caspase 9 and caspase 8 using ELISA kits. The kits are sandwich enzyme immunoassays for in vitro quantitative measurement of Caspase 8 and Caspase 9 in cell lysates, rat tissue homogenates, and other biological fluids. Caspase 9 plays a key role in the mitochondrial signaling pathway of apoptosis induction. The activation of caspase 8 characterizes the external (receptor-dependent) pathway of apoptosis. HuTu 80 cells not treated with the tested compounds were used as a control.

[1] = In vivo acute toxicity, single intraperitoneal injection; parameters: species or system mice; settings: male, CD-1, mouse, in vivo, ip, male CD-1 mice, single intraperitoneal administration, 14 days, Probit analysis
Procedure: (§1) The study of acute toxicity was performed on males of outbred white mice of the CD-1 line at the age of 2–3 months, weighing 20–30 g. The total number of mice participating in the experiment was 300. Mice were obtained from the Research and Production Enterprise Laboratory Animal Farm based at the Branch of Shemyakin and Ovchinnikov Institute of Bioorganic Chemistry of the Russian Academy of Sciences (Pushchino, Russia). The animals were kept in accordance with in standard conditions in a vivarium with 12 h of daylight and free access to food and water. The animals were fed complete feed made according to specifications (protein 22%, fiber 4% max., fat 5% max, ash 9% max, humidity 13.5% max, caloric value 295 kcal/100 g). The studies were conducted with a single parenteral–intraperitoneal (intra-peritoneal) injection, according to the method.
(§2) The substances were introduced in a sterile saline DMSO (40% vol.) solution. Solutions of the substances were prepared immediately before administration. The total volume of the injected liquid was 0.1 mL/10 g of animal weight. As a control, a group of mice was administered under similar conditions an equivalent amount (0.1 mL/10 g, or 10 mL/kg) of a solvent—40% DMSO on sterile saline solution. The substances were administered in doses ranging from 1 to 100 mg/kg; there were six animals in each group. To assess acute toxicity, the animals were monitored 14 days after administration of the substance, assessing their general condition and recording deaths.
(§3) The study of the acute toxicity parameters of six aminophosphonium salts 4a, 4b, 4d, 5a, 5b, and 6b was performed on male outbreed white mice of the CD-1 line. Acute toxicity was determined with a single parenteral (intraperitoneal) administration in sterile saline/DMSO (40% vol.) solution at doses from 1 to 100 mg/kg. To assess acute toxicity, the animals were monitored for 14 days after the introduction of substances, assessing their general condition and recording deaths. Next, lethal doses LD50, LD0, LD16, LD84, and LD100 were calculated using the Probit analysis method. LD0, LD16, LD84, and LD100 are given in Supplementary Material (Table S1).

mice of the CD-1 line = test: as above; settings: for onset of animal death after administration: doses of LD100; for acute toxicity class: according to the classification [105], parenteral administration
Procedure: as §1, §2, §3

| SMILES | concentration of caspase 8 (in words) (caspase 8) | LD50 at 14 days [1] | onset of animal death after administration (mice of the CD-1 line; CD-1 mice, i.p.) | acute toxicity class (mice of the CD-1 line) | LD50 (mice of the CD-1 line; male CD-1 mice, single intraperitoneal administration, 14 days, Probit analysis) | death in animals (mice of the CD-1 line; CD-1 mice, i.p., dose of 150 mg/kg) | time to death (mice of the CD-1 line; CD-1 mice, i.p., doses of 200 and 400 mg/kg) |
| --- | --- | --- | --- | --- | --- | --- | --- |
| CCCCCCCC[P+](N(CC)CC)(N(CC)CC)N(CC)CC [4b, Tris(diethylamino)(octyl)phosphonium iodide] | significantly decreased | 43.4 mg/kg | 1 to 2 h | moderately toxic |  |  |  |
| CCCCCCCCCC[P+](N(CC)CC)(N(CC)CC)N(CC)CC [4d, Decyltris(diethylamino)phosphonium iodide] |  | 6.9 mg/kg | 1 to 2 h | highly toxic | 5.9 (3.7÷7.6) mg/kg |  |  |
| CCCCCCCC[P+](c1ccccc1)(N(CC)CC)N(CC)CC [5b, Bis(diethylamino)(octyl)(phenyl)phosphonium iodide] | significantly decreased | 27.9 mg/kg | 1 to 2 h | moderately toxic |  |  |  |
| CCCCCCCC[P+](c1ccccc1)(c1ccccc1)N(CC)CC [6b, (Diethylamino)(octyl)diphenylphosphonium iodide] |  | 102 mg/kg |  | moderately toxic |  | 100% | ≤ 10 min |
